Measured values from article PMC9741109, “Synthesis, In Silico and In Vivo Toxicity Assessment of Functionalized Pyridophenanthridinones via Sequential MW-Assisted Intramolecular Friedel-Crafts Alkylation and Direct C–H Arylation” (Molecules, 2022).
Where “and” joins values, the source holds several entries; their conditions need not be identical. Equal values may be shown once.

Legend:
in vivo = details: wild-type, zebrafish (Danio rerio), in vivo
From the text: (§1) The Zebrafish (Danio rerio) has been established as a modern experimental vertebrate model for assessing the toxicity of diverse synthetic and natural small molecules (SMs). […] Thus, these previously reported methodologies were adapted in our laboratory with slight modifications for the toxicological assessment of the selected pyridophenanthridin-6-one 4f and its corresponding precursors 6f–8f (Table 2).
(§2) Wild-type adult zebrafish of both sexes were separated in two tanks (30 L each), according to their gender, at 26 ± 2 °C under natural light-dark photoperiods. Fishes were fed twice daily, and the water quality was recorded weekly, in order to acclimate the fishes for at least two weeks before experiments begin. For the reproduction of the adult fishes, small breeding tanks were set up in the evening previous to the experiment, each containing three males and one female specimen. The tanks were isolated until the next morning when the lights switched on and the natural mating occurred, without any perturbation.
(§3) The adult fishes were returned to their corresponding tank and the embryos were collected, pooled, and washed with E3 medium and transferred into a 92 mm glass Petri dish. Further, the dead, delayed, malformed, and unfertilized embryos were identified under a dissecting microscope and removed by select aspiration with a pipette. This last procedure was repeated at 12 and 20 hpf in order to remove the unfit embryos. Throughout this period of time, the embryos were kept at 28 ± 2 °C in an incubator under natural light–dark photoperiods. The selected embryos of 24 hpf from the Petri dish were gently distributed into 96-well plates, placing a single embryo and 200 μL of E3 medium per well.
(§4) For this experiment, in total 72 embryos were required per sample in order to run three independent experiments in three different plates, and each compound was evaluated three times in the same plate, allowing the evaluation of four samples per plate. […] Each embryo was examined under a dissecting microscope and the statistical analysis was made using Regression Probit analysis with SPSS for windows version 19.0. Data are expressed as the standard error of the mean (SEM) of three different experiments in triplicate.

zebrafish embryos = test: in vivo; details: toxicity scale class from zebrafish LC50 in mg/L
From the text: as §1, §2, §3, §4

[1] = LC50, zebrafish embryos, Figure 5 toxicity scale
[2] = Zebrafish LC50, zebrafish embryos, 96 hpf, 72 h exposure, mean ± SEM

C=CCc1ccc(O)c(OC)c1 [Eugenol 19, eugenol]
LC50 (in vivo; [1]): 114 µM | LC50 (in vivo; [2]): 114 µM and 18.7 µg/mL | Aquatic Animal Acute Toxicity (zebrafish embryos): ST (slightly toxic 10–100 (ST))

CCc1ccc2c(c1)C(c1ccccc1)CC(=O)N2Cc1ccccc1Br (stereo not shown) [6f]
LC50 (in vivo; [2]): 151 µM and 86.5 µg/mL | Aquatic Animal Acute Toxicity (zebrafish embryos): ST (slightly toxic 10–100 (ST))

CCCCCCCCCCC[C@@H](C[C@@H]1OC(=O)[C@H]1CCCCCC)OC(=O)[C@H](CC(C)C)NC=O [Orlistat 15, orlistat]
LC50 (in vivo; [1]): 86 µM | LC50 (in vivo; [2]): 87 µM and 43.1 µg/mL | Aquatic Animal Acute Toxicity (zebrafish embryos): ST (slightly toxic 10–100 (ST))

CCc1ccc(NC(=O)/C=C/c2ccccc2)cc1 [8f]
LC50 (in vivo; [2]): 221 µM and 43.9 µg/mL | Aquatic Animal Acute Toxicity (zebrafish embryos): ST (slightly toxic 10–100 (ST))

CC(C)Cn1cnc2c(N)nc3ccccc3c21 [Imiquimod 14, imiquimod]
LC50 at 72 h (in vivo; [1]): 351 µM | LC50 at 72 h (in vivo; [2]): 351 µM and 84.3 µg/mL | Aquatic Animal Acute Toxicity (zebrafish embryos): ST (slightly toxic 10–100 (ST))

COc1ccc(O)cc1C(C)(C)C [BHA 18, butylated hydroxyanisole]
LC50 (in vivo; [1]): 90.2 µM | LC50 (in vivo; [2]): 90.2 ± 1.15 µM | Aquatic Animal Acute Toxicity (zebrafish embryos): ST (slightly toxic 10–100 (ST))

CCc1ccc(N(Cc2ccccc2Br)C(=O)/C=C/c2ccccc2)cc1 [7f]
LC50 (in vivo; [1]): 137 µM | LC50 (in vivo; [2]): 137 µM and 51.2 µg/mL | Aquatic Animal Acute Toxicity (zebrafish embryos): ST (slightly toxic 10–100 (ST))

CCc1cc2c3c(c1)C(c1ccccc1)CC(=O)N3Cc1ccccc1-2 (stereo not shown) [4f]
LC50 (in vivo; [1]): 67.8 µM | LC50 (in vivo; [2]): 67.8 µM and 60.2 µg/mL | Aquatic Animal Acute Toxicity (zebrafish embryos): ST (slightly toxic 10–100 (ST))

CC[C@@]1(O)C(=O)OCc2c1cc1n(c2=O)Cc2cc3ccccc3nc2-1 [Camptothecin 13, camptothecin]
LC50 at 72 h (in vivo; [1]): 0.0038 µM | LC50 at 72 h (in vivo; Zebrafish LC50, zebrafish embryos, 96 hpf, 72 h exposure, mean ± SEM, footnote c): 0.00384 ± 0.00021 µM | Aquatic Animal Acute Toxicity (zebrafish embryos): T (super toxic 0–0.1 (T))
